From US9156796B2, “Benzoimidazole-carboxylic acid amide derivatives as APJ receptor modulators” (SANOFI, priority 2013, dated 2015)

These molecules were tested against T1, human apelin receptor (Homo sapiens, UniProt P35414) (assay: Determination of agonism on the human apelin receptor by a calcium fluorescence assay (FLIPR)). Conditions: HEK293 cells stably transfected with human apelin receptor and Giaq protein, Fluo-4 calcium fluorescence, read-out: EC50 (APJ agonism).
T1 construct: expressed in transfected cells
T1 sequence (P35414 1-380): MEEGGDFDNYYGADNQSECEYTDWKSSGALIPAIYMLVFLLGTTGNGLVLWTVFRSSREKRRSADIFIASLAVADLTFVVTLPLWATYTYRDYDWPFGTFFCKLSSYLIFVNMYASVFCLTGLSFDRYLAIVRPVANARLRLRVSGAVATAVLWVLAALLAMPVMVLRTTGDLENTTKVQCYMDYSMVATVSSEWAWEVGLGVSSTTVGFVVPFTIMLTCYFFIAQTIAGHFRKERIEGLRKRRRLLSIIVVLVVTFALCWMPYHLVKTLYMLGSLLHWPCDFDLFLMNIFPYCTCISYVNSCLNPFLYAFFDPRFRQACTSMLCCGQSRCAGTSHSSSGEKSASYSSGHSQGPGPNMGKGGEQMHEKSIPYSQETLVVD
Format: cell-based
Summary of the method: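 HEK293 cells stably co-expressing human apelin receptor and promiscuous Giaq, loaded 1 h at 37 °C with Fluo-4 (4 μM) in probenecid-containing Hepes buffer, pH 7.4. Compounds, at least 7 concentrations in triplicate, added in FLIPR Tetra; peak calcium fluorescence normalized to 1 μM apelin-13 as 100% to derive EC50.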

Row | Structure (SMILES) | EC50 [nM]
1 | CCC(CC)n1c(Cc2cccs2)nc2cc(C(=O)N[C@@H](CC(C)C)C(=O)NCCC#N)ccc21 [Example 404, 1-(1-Ethyl-propyl)-2-thiophen-2-ylmethyl-1H-benzoimidazole-5-carboxylic acid [(S)-1-(2-cyano-ethylcarbamoyl)-3-methyl-butyl]-amide] | 788
2 | CCC(CC)n1c(Cc2cccs2)nc2cc(C(=O)N[C@@H](CC(C)C)C(=O)N(C)Cc3n[nH]c(=O)[nH]3)ccc21 [Example 405, 1-(1-Ethyl-propyl)-2-thiophen-2-ylmethyl-1H-benzoimidazole-5-carboxylic acid {(S)-3-methyl-1-[methyl-(5-oxo-4,5-dihydro-1H-[1,2,4]triazol-3-ylmethyl)-carbamoyl]-butyl}-amide] | 842
3 | CCC(CC)n1c(Cc2cccs2)nc2cc(C(=O)N[C@@H](CC(C)C)C(=O)NCCc3n[nH]c(=O)[nH]3)ccc21 [Example 406, 1-(1-Ethyl-propyl)-2-thiophen-2-ylmethyl-1H-benzoimidazole-5-carboxylic acid {(S)-3-methyl-1-[2-(5-oxo-4,5-dihydro-1H-[1,2,4]triazol-3-yl)-ethylcarbamoyl]-butyl}-amide] | 1110
4 | CCC(CC)n1c(Cc2cccs2)nc2cc(C(=O)N[C@@H](CC(C)C)C(=O)N3CCC(O)C3)ccc21 (stereo partly drawn) [Example 407, 1-(1-Ethyl-propyl)-2-thiophen-2-ylmethyl-1H-benzoimidazole-5-carboxylic acid [(S)-1-(3-hydroxy-pyrrolidine-1-carbonyl)-3-methyl-butyl]-amide] | 708
5 | CCC(CC)n1c(Cc2cccs2)nc2cc(C(=O)N[C@@H](CC(C)C)C(=O)NCC(=O)O)ccc21 [Example 408, ((S)-2-{[1-(1-Ethyl-propyl)-2-thiophen-2-ylmethyl-1H-benzoimidazole-5-carbonyl]-amino}-4-methyl-pentanoylamino)-acetic acid] | 447
6 | CCC(CC)n1c(Cc2cccs2)nc2cc(C(=O)N[C@@H](CC(C)C)C(=O)N3CCC[C@H]3C(=O)O)ccc21 [Example 409, (S)-1-((S)-2-{[1-(1-Ethyl-propyl)-2-thiophen-2-ylmethyl-1H-benzoimidazole-5-carbonyl]-amino}-4-methyl-pentanoyl)-pyrrolidine-2-carboxylic acid] | 491
7 | CCC(CC)n1c(Cc2cccs2)nc2cc(C(=O)N[C@@H](CC(C)C)C(=O)N3CCC[C@@H]3C(=O)O)ccc21 [Example 410, (R)-1-((S)-2-{[1-(1-Ethyl-propyl)-2-thiophen-2-ylmethyl-1H-benzoimidazole-5-carbonyl]-amino}-4-methyl-pentanoyl)-pyrrolidine-2-carboxylic acid] | 578
8 | CCC(CC)n1c(Cc2cccs2)nc2cc(C(=O)N[C@@H](CC(C)C)C(=O)N3CC(C(=O)O)C3)ccc21 [Example 411, 1-((S)-2-{[1-(1-Ethyl-propyl)-2-thiophen-2-ylmethyl-1H-benzoimidazole-5-carbonyl]-amino}-4-methyl-pentanoyl)-azetidine-3-carboxylic acid] | 822
9 | CCC(CC)n1c(Cc2cccs2)nc2cc(C(=O)N[C@H](Cc3nnn[nH]3)CC(C)C)ccc21 [Example 472, 1-(1-Ethyl-propyl)-2-thiophen-2-ylmethyl-1H-benzoimidazole-5-carboxylic acid [(S)-3-methyl-1-(1H-tetrazol-5-ylmethyl)-butyl]-amide] | 38
10 | CCC(CC)n1c(Cc2cccs2)nc2cc(C(=O)N[C@H](CC(=N)NO)CC(C)C)ccc21 [Example 473, 1-(1-Ethyl-propyl)-2-thiophen-2-ylmethyl-1H-benzoimidazole-5-carboxylic acid [(S)-1-(N-hydroxycarbamimidoylmethyl)-3-methyl-butyl]-amide] | 173
11 | CCC(CC)n1c(Cc2cccs2)nc2cc(C(=O)N[C@H](Cc3noc(-c4ccccc4)n3)CC(C)C)ccc21 [Example 474, 1-(1-Ethyl-propyl)-2-thiophen-2-ylmethyl-1H-benzoimidazole-5-carboxylic acid [(S)-3-methyl-1-(5-phenyl-[1,2,4]oxadiazol-3-ylmethyl)-butyl]-amide] | 34500
12 | CCC(CC)n1c(Cc2cccs2)nc2cc(C(=O)N[C@H](Cc3noc(C4CC4)n3)CC(C)C)ccc21 [Example 475, 1-(1-Ethyl-propyl)-2-thiophen-2-ylmethyl-1H-benzoimidazole-5-carboxylic acid [(S)-1-(5-cyclopropyl-[1,2,4]oxadiazol-3-ylmethyl)-3-methyl-butyl]-amide] | 2820
13 | CCC(CC)n1c(Cc2cccs2)nc2cc(C(=O)N[C@H](Cc3n[nH]c(C(F)(F)F)n3)CC(C)C)ccc21 [Example 476, 1-(1-Ethyl-propyl)-2-thiophen-2-ylmethyl-1H-benzoimidazole-5-carboxylic acid [(S)-3-methyl-1-(5-trifluoromethyl-1H-[1,2,4]triazol-3-ylmethyl)-butyl]-amide] | 3950
14 | CCCC(NC(=O)c1ccc2c(c1)nc(Cc1cccs1)n2C(CC)CC)c1ccccn1 (stereo not shown) [Example 477, 1-(1-Ethyl-propyl)-2-thiophen-2-ylmethyl-1H-benzoimidazole-5-carboxylic acid (1-pyridin-2-yl-butyl)-amide] | 2720
15 | CCC(CC)n1c(Cc2cccs2)nc2cc(C(=O)NC(CC(C)C)c3cccnc3)ccc21 (stereo not shown) [Example 478, 1-(1-Ethyl-propyl)-2-thiophen-2-ylmethyl-1H-benzoimidazole-5-carboxylic acid (3-methyl-1-pyridin-3-yl-butyl)-amide] | 3150
16 | CCC(CC)n1c(Cc2cccs2)nc2cc(C(=O)NC(CC(C)C)c3nccs3)ccc21 (stereo not shown) [Example 479, 1-(1-Ethyl-propyl)-2-thiophen-2-ylmethyl-1H-benzoimidazole-5-carboxylic acid (3-methyl-1-thiazol-2-yl-butyl)-amide] | 16900
17 | CCC(CC)n1c(Cc2cccs2)nc2cc(C(=O)NC(CC(C)C)c3nc(C)c(C)s3)ccc21 (stereo not shown) [Example 480, 1-(1-Ethyl-propyl)-2-thiophen-2-ylmethyl-1H-benzoimidazole-5-carboxylic acid [1-(4,5-dimethyl-thiazol-2-yl)-3-methyl-butyl]-amide] | 20000
18 | CCC(CC)n1c(Cc2cccs2)nc2cc(C(=O)NC(CC(C)C)c3nnc(C)o3)ccc21 (stereo not shown) [Example 481, 1-(1-Ethyl-propyl)-2-thiophen-2-ylmethyl-1H-benzoimidazole-5-carboxylic acid [3-methyl-1-(5-methyl-[1,3,4]oxadiazol-2-yl)-butyl]-amide] | 3480
19 | CCC(CC)n1c(Cc2cccs2)nc2cc(C(=O)N[C@H](c3nnc(COC)[nH]3)C(C)C)ccc21 [Example 482, 1-(1-Ethyl-propyl)-2-thiophen-2-ylmethyl-1H-benzoimidazole-5-carboxylic acid [(S)-1-(5-methoxymethyl-2H-[1,2,4]triazol-3-yl)-2-methyl-propyl]-amide] | 15700
20 | CCC(CC)n1c(Cc2cccs2)nc2cc(C(=O)N[C@H](CSc3nnc[nH]3)CC(C)C)ccc21 [Example 483, 1-(1-Ethyl-propyl)-2-thiophen-2-ylmethyl-1H-benzoimidazole-5-carboxylic acid [(S)-3-methyl-1-(4H-[1,2,4]triazol-3-ylsulfanylmethyl)-butyl]-amide] | 2080
21 | CCC(CC)n1c(Cc2cccs2)nc2cc(C(=O)N[C@@H](CC(C)C)CS(=O)(=O)c3nnc[nH]3)ccc21 [Example 484, 1-(1-Ethyl-propyl)-2-thiophen-2-ylmethyl-1H-benzoimidazole-5-carboxylic acid [(S)-3-methyl-1-(4H-[1,2,4]triazole-3-sulfonylmethyl)-butyl]-amide] | 14
22 | CCC(CC)n1c(Cc2cccs2)nc2cc(C(=O)N[C@@H](CC(C)C)CS(=O)(=O)NC)ccc21 [Example 485, 1-(1-Ethyl-propyl)-2-thiophen-2-ylmethyl-1H-benzoimidazole-5-carboxylic acid ((S)-3-methyl-1-methylsulfamoylmethyl-butyl)-amide] | 813
